Counter-ions that a name gives are not always drawn.
Tests used:
JAK1 = JAK1 (Homo sapiens (Human), UniProt P23458); assay: JAK Caliper Enzyme Assay at 1 mM ATP (JAK1); type: biochemical; details: Caliper assay at 1 mM ATP
JAK2 = JAK2 (Homo sapiens (Human), UniProt O60674); assay: JAK Caliper Enzyme Assay at 1 mM ATP (JAK2); type: biochemical; details: Caliper assay at 1 mM ATP
JAK3 = JAK3 (Homo sapiens (Human), UniProt P52333); assay: JAK Caliper Enzyme Assay at 1 mM ATP (JAK3); type: biochemical; details: Caliper assay at 1 mM ATP
TYK2 = TYK2 (Homo sapiens (Human), UniProt P29597); assay: JAK Caliper Enzyme Assay at 1 mM ATP (TYK2); type: biochemical; details: Caliper assay at 1 mM ATP
[1] = system: rhIFNγ stimulated STAT-3 phosphorylation in the A549 human epithelial cell line; assay: A549 Cell Assay: Inhibition of pSTAT3; type: cell-based; details: A549 cells
Procedure, shortened: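 A549 cells cultured 18 h were preincubated 1 h at 37° C with compound (0.3 nM to 10 μM, 0.1% DMSO) in DMEM with 0.2% BSA, then stimulated with 20 ng/mL rhIFNγ for 30 min. pSTAT3 Tyr705 in the lysates was measured by MSD immunoassay and expressed as percent inhibition.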

JAK3, sequence (P52333 whole entry): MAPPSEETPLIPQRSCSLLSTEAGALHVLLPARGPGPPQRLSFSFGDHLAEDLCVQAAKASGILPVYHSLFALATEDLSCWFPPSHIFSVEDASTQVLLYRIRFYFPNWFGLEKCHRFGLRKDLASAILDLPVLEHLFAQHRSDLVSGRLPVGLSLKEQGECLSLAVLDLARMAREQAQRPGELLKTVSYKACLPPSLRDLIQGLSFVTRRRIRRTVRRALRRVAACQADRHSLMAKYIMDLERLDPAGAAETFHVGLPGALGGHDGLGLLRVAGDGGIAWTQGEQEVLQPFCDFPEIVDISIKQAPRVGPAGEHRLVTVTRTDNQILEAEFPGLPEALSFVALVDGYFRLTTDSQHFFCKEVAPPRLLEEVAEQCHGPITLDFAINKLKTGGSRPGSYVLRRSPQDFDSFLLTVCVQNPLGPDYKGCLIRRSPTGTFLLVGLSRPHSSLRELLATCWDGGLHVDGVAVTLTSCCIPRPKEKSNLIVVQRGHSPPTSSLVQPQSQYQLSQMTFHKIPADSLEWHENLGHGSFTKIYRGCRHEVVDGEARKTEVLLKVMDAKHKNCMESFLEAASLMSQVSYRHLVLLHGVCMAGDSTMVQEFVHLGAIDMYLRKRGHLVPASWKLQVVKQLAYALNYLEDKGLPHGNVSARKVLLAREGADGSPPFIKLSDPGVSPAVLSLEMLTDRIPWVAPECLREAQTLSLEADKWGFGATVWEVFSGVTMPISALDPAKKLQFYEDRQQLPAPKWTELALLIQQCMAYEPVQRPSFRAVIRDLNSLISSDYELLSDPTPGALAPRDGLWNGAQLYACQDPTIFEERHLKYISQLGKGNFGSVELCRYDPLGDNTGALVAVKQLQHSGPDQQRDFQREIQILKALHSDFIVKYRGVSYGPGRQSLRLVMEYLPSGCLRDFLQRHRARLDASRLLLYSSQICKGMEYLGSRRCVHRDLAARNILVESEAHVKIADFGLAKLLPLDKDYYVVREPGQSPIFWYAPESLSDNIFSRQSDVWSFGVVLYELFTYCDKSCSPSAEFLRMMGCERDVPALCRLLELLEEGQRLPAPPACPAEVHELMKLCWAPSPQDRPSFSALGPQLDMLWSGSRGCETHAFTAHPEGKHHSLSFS
JAK2, sequence (O60674 whole entry): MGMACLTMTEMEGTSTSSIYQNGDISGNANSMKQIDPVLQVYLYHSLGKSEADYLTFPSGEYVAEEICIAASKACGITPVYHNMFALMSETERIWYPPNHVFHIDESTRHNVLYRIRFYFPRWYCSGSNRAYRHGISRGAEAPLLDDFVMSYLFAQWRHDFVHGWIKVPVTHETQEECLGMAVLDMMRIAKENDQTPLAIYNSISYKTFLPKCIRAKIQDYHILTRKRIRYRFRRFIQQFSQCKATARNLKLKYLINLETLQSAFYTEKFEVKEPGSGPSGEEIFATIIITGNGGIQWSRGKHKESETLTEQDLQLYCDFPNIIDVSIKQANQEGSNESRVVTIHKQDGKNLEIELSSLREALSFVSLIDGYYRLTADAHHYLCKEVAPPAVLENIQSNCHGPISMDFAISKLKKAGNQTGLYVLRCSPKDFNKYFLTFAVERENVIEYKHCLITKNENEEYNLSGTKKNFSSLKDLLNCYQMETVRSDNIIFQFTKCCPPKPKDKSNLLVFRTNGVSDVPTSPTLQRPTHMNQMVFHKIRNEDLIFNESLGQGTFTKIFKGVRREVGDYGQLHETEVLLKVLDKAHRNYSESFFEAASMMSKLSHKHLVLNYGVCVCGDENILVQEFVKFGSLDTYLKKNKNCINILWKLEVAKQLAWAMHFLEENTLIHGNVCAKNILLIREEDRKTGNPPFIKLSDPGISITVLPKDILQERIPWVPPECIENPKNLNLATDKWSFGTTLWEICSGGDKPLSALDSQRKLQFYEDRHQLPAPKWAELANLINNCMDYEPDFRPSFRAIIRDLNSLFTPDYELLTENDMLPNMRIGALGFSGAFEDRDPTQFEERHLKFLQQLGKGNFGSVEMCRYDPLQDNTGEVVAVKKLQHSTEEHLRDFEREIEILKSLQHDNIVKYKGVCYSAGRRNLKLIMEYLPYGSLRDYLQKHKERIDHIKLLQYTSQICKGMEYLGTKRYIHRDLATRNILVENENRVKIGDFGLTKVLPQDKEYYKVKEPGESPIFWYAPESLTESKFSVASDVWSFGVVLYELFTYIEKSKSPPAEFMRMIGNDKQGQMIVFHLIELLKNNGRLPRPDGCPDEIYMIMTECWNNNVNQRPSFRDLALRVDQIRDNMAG
JAK1, sequence (P23458 whole entry): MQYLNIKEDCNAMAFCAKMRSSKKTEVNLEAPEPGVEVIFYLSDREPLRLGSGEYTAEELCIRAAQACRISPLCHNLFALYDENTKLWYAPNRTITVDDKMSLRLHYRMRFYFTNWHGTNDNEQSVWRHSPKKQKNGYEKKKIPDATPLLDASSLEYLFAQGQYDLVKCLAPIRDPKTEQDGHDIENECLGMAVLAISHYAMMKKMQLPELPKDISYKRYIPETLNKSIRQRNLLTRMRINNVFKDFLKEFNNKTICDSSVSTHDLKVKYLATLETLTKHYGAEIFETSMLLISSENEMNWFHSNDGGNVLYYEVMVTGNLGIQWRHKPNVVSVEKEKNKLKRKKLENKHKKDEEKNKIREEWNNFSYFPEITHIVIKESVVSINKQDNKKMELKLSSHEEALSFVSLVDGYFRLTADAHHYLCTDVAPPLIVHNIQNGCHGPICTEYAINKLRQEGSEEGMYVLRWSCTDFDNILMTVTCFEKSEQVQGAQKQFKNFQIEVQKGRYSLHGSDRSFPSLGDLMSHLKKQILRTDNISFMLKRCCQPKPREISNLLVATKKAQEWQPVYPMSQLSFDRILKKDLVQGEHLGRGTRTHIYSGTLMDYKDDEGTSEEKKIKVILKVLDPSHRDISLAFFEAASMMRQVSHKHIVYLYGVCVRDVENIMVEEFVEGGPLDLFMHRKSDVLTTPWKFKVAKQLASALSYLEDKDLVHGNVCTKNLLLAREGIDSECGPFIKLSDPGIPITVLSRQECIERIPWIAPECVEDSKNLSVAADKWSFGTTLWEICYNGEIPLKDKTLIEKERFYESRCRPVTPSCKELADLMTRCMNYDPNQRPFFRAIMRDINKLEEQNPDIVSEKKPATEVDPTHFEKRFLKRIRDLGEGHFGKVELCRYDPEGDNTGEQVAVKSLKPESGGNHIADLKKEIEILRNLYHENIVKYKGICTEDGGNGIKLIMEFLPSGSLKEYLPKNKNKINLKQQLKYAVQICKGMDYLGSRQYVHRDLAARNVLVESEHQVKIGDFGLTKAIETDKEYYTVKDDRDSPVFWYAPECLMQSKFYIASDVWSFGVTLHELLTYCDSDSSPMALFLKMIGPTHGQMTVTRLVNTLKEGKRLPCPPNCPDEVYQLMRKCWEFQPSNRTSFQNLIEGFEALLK
TYK2, sequence (P29597 whole entry): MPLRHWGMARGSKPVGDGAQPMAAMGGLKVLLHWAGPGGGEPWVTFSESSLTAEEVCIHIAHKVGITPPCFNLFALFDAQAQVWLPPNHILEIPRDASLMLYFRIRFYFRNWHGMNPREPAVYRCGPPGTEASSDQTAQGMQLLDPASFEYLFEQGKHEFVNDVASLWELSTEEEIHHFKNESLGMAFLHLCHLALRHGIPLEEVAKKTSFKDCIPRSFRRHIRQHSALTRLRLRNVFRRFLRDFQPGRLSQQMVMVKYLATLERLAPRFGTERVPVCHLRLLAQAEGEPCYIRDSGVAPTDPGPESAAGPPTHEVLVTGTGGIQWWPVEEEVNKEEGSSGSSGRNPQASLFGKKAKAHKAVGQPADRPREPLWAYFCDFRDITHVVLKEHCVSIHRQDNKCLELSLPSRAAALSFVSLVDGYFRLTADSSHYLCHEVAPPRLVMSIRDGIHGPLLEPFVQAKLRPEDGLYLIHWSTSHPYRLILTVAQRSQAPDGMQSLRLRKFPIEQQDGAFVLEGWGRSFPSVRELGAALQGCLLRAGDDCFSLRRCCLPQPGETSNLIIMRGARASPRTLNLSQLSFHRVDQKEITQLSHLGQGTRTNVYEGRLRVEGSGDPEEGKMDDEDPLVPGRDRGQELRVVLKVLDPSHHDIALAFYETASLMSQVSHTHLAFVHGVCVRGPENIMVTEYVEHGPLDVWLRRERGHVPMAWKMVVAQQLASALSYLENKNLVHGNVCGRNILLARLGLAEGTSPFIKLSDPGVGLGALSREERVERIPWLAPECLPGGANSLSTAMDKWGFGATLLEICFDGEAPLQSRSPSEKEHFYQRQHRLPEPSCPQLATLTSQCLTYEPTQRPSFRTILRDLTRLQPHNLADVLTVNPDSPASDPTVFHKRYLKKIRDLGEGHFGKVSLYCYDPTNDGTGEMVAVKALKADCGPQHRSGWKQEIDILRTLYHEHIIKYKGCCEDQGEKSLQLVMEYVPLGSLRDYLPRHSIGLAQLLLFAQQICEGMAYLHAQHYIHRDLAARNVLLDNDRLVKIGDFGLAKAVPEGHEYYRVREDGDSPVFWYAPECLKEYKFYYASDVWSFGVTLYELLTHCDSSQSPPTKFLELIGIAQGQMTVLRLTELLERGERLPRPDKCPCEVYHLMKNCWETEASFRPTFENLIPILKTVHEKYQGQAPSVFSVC

SMILES	IC50 (JAK1) [nM]	IC50 (JAK2) [nM]	IC50 (JAK3) [nM]	IC50 (TYK2) [nM]	IC50 ([1]; Homo sapiens) [nM]	IC50 [1] [nM]
CCc1cc(O)c(F)cc1-c1cc2[nH]nc(C(=O)NC)c2c(NCc2ccccc2N(C)S(=O)(=O)c2ccccc2)n1 [Example 22, 6-(2-ethyl-5-fluoro-4-hydroxyphenyl)-N-methyl-4-({2-[methyl(phenylsulfonyl)amino]benzyl}amino)-1H-pyrazolo[4,3-c]pyridine-3-carboxamide]	17.5	81.3	359	59.1	52.8	
CCN(c1ccccc1CNc1nc(-c2cc(F)c(O)cc2CC(F)(F)F)cc2[nH]nc(C(=O)NC)c12)S(C)(=O)=O [Example 12, 4-({2-[ethyl(methylsulfonyl)amino]benzyl}amino)-6-[5-fluoro-4-hydroxy-2-(2,2,2-trifluoroethyl)phenyl]-N-methyl-1H-pyrazolo[4,3-c]pyridine-3-carboxamide]	6.4	31.5	121	24.8	44.9	
CCc1cc(O)ccc1-c1cc2[nH]ncc2c(N2CCc3c(cccc3C(=O)NCc3ccccc3)C2)n1 [Example 117, N-benzyl-2-[6-(2-ethyl-4-hydroxyphenyl)-1H-pyrazolo[4,3-c]pyridin-4-yl]-1,2,3,4-tetrahydroisoquinoline-5-carboxamide formate]			41.6	425		
CCc1cc(O)c(F)cc1-c1cc2[nH]nc(C(=O)NC)c2c(NCC2CCCC2)n1 [Example 10, 4-[(cyclopentylmethyl)amino]-6-(2-ethyl-5-fluoro-4-hydroxyphenyl)-N-methyl-1H-pyrazolo[4,3-c]pyridine-3-carboxamide]	4.7	19	93.1	17.9	26	
CNC(=O)c1n[nH]c2cc(-c3cc(F)c(O)cc3CC(F)(F)F)nc(NCc3cc(F)ccc3N(C)S(C)(=O)=O)c12 [Example 14, 6-[5-fluoro-4-hydroxy-2-(2,2,2-trifluoroethyl)phenyl]-4-({5-fluoro-2-[methyl(methylsulfonyl)amino]benzyl}amino)-N-methyl-1H-pyrazolo[4,3-c]pyridine-3-carboxamide]	4.2	20.5	99.7	43.2	20.7	
CCS(=O)(=O)N(C)c1ccccc1CNc1nc(-c2cc(F)c(O)cc2CC(F)(F)F)cc2[nH]nc(C(=O)NC)c12 [Example 13, 4-({2-[(ethylsulfonyl)(methyl)amino]benzyl}amino)-6-[5-fluoro-4-hydroxy-2-(2,2,2-trifluoroethyl)phenyl]-N-methyl-1H-pyrazolo[4,3-c]pyridine-3-carboxamide]	5.3	26.6	118	35.7	96.7	
Cc1cnc(N(C)S(C)(=O)=O)c(CNc2nc(-c3cc(F)c(O)cc3CC(F)(F)F)cc3[nH]nc(C(N)=O)c23)c1 [Example 86, 6-(5-fluoro-4-hydroxy-2-(2,2,2-trifluoroethyl)phenyl)-4-(((5-methyl-2-(N-methylmethylsulfonamido)pyridin-3-yl)methyl)amino)-1H-pyrazolo[4,3-c]pyridine-3-carboxamide]	38.4	110	81.7	4820	425	
CCc1cc(O)c(F)cc1-c1cc2[nH]nc(C(=O)NC)c2c(NCc2ccccc2N(CC)S(C)(=O)=O)n1 [Example 9, 6-(2-ethyl-5-fluoro-4-hydroxyphenyl)-4-({2-[ethyl(methylsulfonyl)amino]benzyl}amino)-N-methyl-1H-pyrazolo[4,3-c]pyridine-3-carboxamide]	1.7	10.8	60	7.2	14.9	
CCc1cc(O)c(F)cc1-c1cc2[nH]ncc2c(NCc2ccccc2N(CC)S(C)(=O)=O)n1 [Example 138, N-ethyl-N-[2-({[6-(2-ethyl-5-fluoro-4-hydroxyphenyl)-1H-pyrazolo[4,3-c]pyridin-4-yl]amino}-methyl)phenyl]methanesulfonamide]		2.6	14.2	4.8	5.4	
CCc1cc(O)c(F)cc1-c1cc2[nH]ncc2c(N(CCc2ccc(NS(C)(=O)=O)cc2)Cc2ccccc2N(C)S(C)(=O)=O)n1 [Example 130, N-[2-({[6-(2-ethyl-5-fluoro-4-hydroxyphenyl)-1H-pyrazolo[4,3-c]pyridin-4-yl](2-{4-[(methylsulfonyl)amino]phenyl}ethyl)amino}methyl)phenyl]-N-methylmethanesulfonamide hydrochloride]	43.8		1360	194	729	
CCNC(=O)c1n[nH]c2cc(-c3cc(F)c(O)cc3CC(F)(F)F)nc(NCc3nccnc3N(CC)S(C)(=O)=O)c12 [Example 46, N-ethyl-4-[({3-[ethyl(methylsulfonyl)amino]pyrazin-2-yl}methyl)amino]-6-[5-fluoro-4-hydroxy-2-(2,2,2-trifluoroethyl)phenyl]-1H-pyrazolo[4,3-c]pyridine-3-carboxamide]	32.9		179			
CCc1cc(O)ccc1-c1cc2[nH]ncc2c(N2CCC(S(=O)(=O)N(C)C)C2)n1 (racemic) [Example 126, 1-[6-(2-ethyl-4-hydroxyphenyl)-1H-pyrazolo[4,3-c]pyridin-4-yl]-N, N-dimethylpyrrolidine-3-sulfonamide (racemic)]	8.1	23.5	35.1	668		
CNC(=O)c1n[nH]c2cc(-c3cc(F)c(O)cc3CC(F)(F)F)nc(NCc3c(F)cccc3N(C)S(C)(=O)=O)c12 [Example 18, 6-[5-fluoro-4-hydroxy-2-(2,2,2-trifluoroethyl)phenyl]-4-({2-fluoro-6-[methyl(methylsulfonyl)amino]benzyl}amino)-N-methyl-1H-pyrazolo[4,3-c]pyridine-3-carboxamide]	4		73	31	97	
CCCCN(c1ccccc1CNc1nc(-c2cc(F)c(O)cc2CC)cc2[nH]ncc12)S(C)(=O)=O [Example 139, N-butyl-N-[2-({[6-(2-ethyl-5-fluoro-4-hydroxyphenyl)-1H-pyrazolo[4,3-c]pyridin-4-yl]amino}-methyl)phenyl]methanesulfonamide]	8.5					
CNC(=O)c1n[nH]c2cc(-c3cc(F)c(O)cc3CC(F)(F)F)nc(NCc3cc(O)ccc3N(C)S(C)(=O)=O)c12 [Example 50]		10.7	47.4	10.5		321
CNC(=O)c1n[nH]c2cc(-c3cc(F)c(O)cc3CC(F)(F)F)nc(NCc3cc(C)cnc3N(C)S(C)(=O)=O)c12 [Example 67, 6-[5-fluoro-4-hydroxy-2-(2,2,2-trifluoroethyl)phenyl]-N-methyl-4-[({5-methyl-2-[methyl(methylsulfonyl)amino]pyridin-3-yl}methyl)amino]-1H-pyrazolo[4,3-c]pyridine-3-carboxamide]					104	
CNC(=O)c1n[nH]c2cc(-c3cc(F)c(O)cc3CC(F)(F)F)nc(NCc3nccnc3N(C)S(=O)(=O)c3ccccc3)c12 [Example 44, 6-[5-fluoro-4-hydroxy-2-(2,2,2-trifluoroethyl)phenyl]-N-methyl-4-[({3-[methyl(phenylsulfonyl)amino]pyrazin-2-yl}methyl)amino]-1H-pyrazolo[4,3-c]pyridine-3-carboxamide]					59.7	
CNC(=O)c1n[nH]c2cc(-c3cc(F)c(O)cc3C3CC3)nc(NCc3ccccc3N(C)S(C)(=O)=O)c12 [Example 37, 6-(2-cyclopropyl-5-fluoro-4-hydroxyphenyl)-N-methyl-4-({2-[methyl(methylsulfonyl)amino]benzyl}amino)-1H-pyrazolo[4,3-c]pyridine-3-carboxamide]					47.4	
CN(c1ncccc1CNc1nc(-c2cc(F)c(O)cc2CC(F)(F)F)cc2[nH]nc(C(N)=O)c12)S(C)(=O)=O [Example 62, 6-[5-fluoro-4-hydroxy-2-(2,2,2-trifluoroethyl)phenyl]-4-[({2-[methyl(methylsulfonyl)amino]pyridin-3-yl}methyl)amino]-1H-pyrazolo[4,3-c]pyridine-3-carboxamide]					71.8	
CCc1cc(O)cc(C)c1-c1cc2[nH]ncc2c(NCc2ccccc2N(C)S(C)(=O)=O)n1 [Example 156]						72.4
CCN(c1ccccc1CNc1nc(-c2cc(F)c(O)cc2CC(F)(F)F)nc2[nH]nc(C(=O)NC)c12)S(C)(=O)=O [Example 103, 4-((2-(N-ethylmethylsulfonamido)benzyl)amino)-6-(5-fluoro-4-hydroxy-2-(2,2,2-trifluoroethyl)-phenyl)-N-methyl-1H-pyrazolo[3,4-d]pyrimidine-3-carboxamide]					235	
CCc1cc(O)c(F)cc1-c1cc2[nH]nc(C(=O)NC)c2c(NCc2cc(Cl)ccc2N(C)S(C)(=O)=O)n1 [Example 6, 4-({5-chloro-2-[methyl(methylsulfonyl)amino]benzyl}amino)-6-(2-ethyl-5-fluoro-4-hydroxyphenyl)-N-methyl-1H-pyrazolo[4,3-c]pyridine-3-carboxamide]					23.4	
CN(c1ccc(Cl)cc1CNc1nc(-c2cc(F)c(O)cc2CC(F)(F)F)cc2[nH]nc(C(N)=O)c12)S(C)(=O)=O [Example 89, 4-({5-chloro-2-[methyl(methylsulfonyl)amino]benzyl}amino)-6-[5-fluoro-4-hydroxy-2-(2,2,2-trifluoroethyl)phenyl]-1H-pyrazolo[4,3-c]pyridine-3-carboxamide]					46.3	

Source: patent US10022376B2 (Pfizer Inc., priority 2014, dated 2018)
